For data set [1], the system named is LoVo (human colorectal adenocarcinoma). The data set is described as follows: Cytotoxicity on LoVo cells, quantitative suspension test according to EN 14476. As to conditions: observed 4 days, aqua media. The format is cell-based. As for the experimental part: (§1) Normal human dermal fibroblasts (NHDF) (PromoCell, C-12302) were used as normal cells and LoVo (human colorectal adenocarcinoma, ATCC® CCL-229™), A549 (human lung carcinoma, ATCC, No. CCL-185 TM), MCF-7 (human breast adenocarcinoma, ATCC, No. HTB-22^TM) and HeLa (human cervix carcinoma, ATCC, No. CCL-2 TM) were used as cancer cells. They were cultured in DMEM, DMEM–F12 or EMEM (Lonza, CA, USA). Media were supplemented with 10% FBS (Biological Industries, Kibbutz Beit-Haemek, Israel), 2 mM L-glutamine (Biological Industries, Israel), 100 U/mL of penicillin and 100 µg/mL of streptomycin (Sigma, Neustadt an der Weinstrasse, Germany).
(§2) The 100 μL of suspension of NHDF, A549, HeLa, LoVo, and MCF7 cells at a density of 4 × 10^4 cells mL^−1 were incubated in a 96-well polystyrene plate (NUNC, Denmark) for 24 h. Product test solutions were prepared in DMEM, DMEM–F12, or EMEM supplemented with additional 2% FBS and 2 mM L-glutamine. Solutions of the reagents at concentrations from 460 (for 1), 454 (2), […] (3), 1242 (Cu(NO3)2), 1732 (PTA=O), and 1440 µM (dmphen) to 4.60 × 10^−6, 4.54 × 10^−6, 4.69 × 10^−6, 1.24 × 10^−5, 1.73 × 10^−5, and 1.44 × 10^−5 µM, respectively, were prepared and transferred (100 μL) into cell culture units (wells of microtiter plates) containing monolayer of cells. Eight units were inoculated with each dilution. Plates were incubated in 37 °C, 5% CO2 and observed daily for 4 days for the development of cytotoxic effect, using an inverted microscope (Olympus Corp., Hamburg, Germany, Axio Observer, Carl Zeiss MicroImaging GmbH). Then the wells were washed in phosphate buffered saline (PBS) and stained using DAPI (4′,6-diamidino-2-phenylindole) and propidium iodide (Merck, Darmstadt, Germany). The study used the fact that DAPI is able to be combined with cellular DNA, permeate through the membrane of cell, rapidly enter the nucleus of living cells and bind with DNA to form a DAPI-DNA complex. […] In cell culture these are cells that are apoptotic or damaged by any physical or chemical agent. Therefore, if these two fluorochrome are given at the same time, DAPI will get to healthy cells faster, while propidium iodide will stain dead or dying cells. The calculation of the ratio of cells counted on a specific area, allows to determine the potency of a substance in inhibiting a specific biological function (IC50).

The test system of data set [2] is MCF7 (human breast adenocarcinoma). The data set is described as follows: Cytotoxicity on MCF7 cells, quantitative suspension test according to EN 14476. In kind it is cell-based. The note with it: observed 4 days, aqua media. As to the method:
as §1, §2

A short description of data set [3]: Solubility in water at 25 °C, stepwise water addition. The format is physicochemical. The note with it: H2O. As to the method: The copper complexes 1–3 were air stable in the solid state and at least for several days in H2O solutions. In a general procedure, the complex was dissolved in H2O in air atmosphere. […] Also UV-Vis spectra of water solutions of 1-3 confirm their stability in several days. […] After each addition of an amount of water (100 µL), the mixture was shaken for several minutes and then visually checked for any undissolved parts of the sample.

Data set [4] concerns the target T1, human apo-transferrin (apo-Tf) (Homo sapiens, UniProt P02787).
T1 construct: purchased Sigma-Aldrich
Briefly: Apo-transferrin interaction by fluorescence quenching (Stern-Volmer, binding, van't Hoff). As to conditions: for Ka (association constant) / Ksv (Stern-Volmer quenching constant): PBS pH 7.40; for Kq (quenching rate constant): Kq = Ksv/τo, τo 2.5 ns; for H^0 (enthalpy change) / S^0 (entropy change): van't Hoff, 300 and 310 K. From the text: There are two mechanisms of fluorescence quenching, dynamic and static, that can be distinguished based on the temperature dependency. Dynamic quenching is due to collisions between quencher and fluorophore and static quenching results from the formation of the ground state complex between the molecules. A modified Stern–Volmer equation (Equation (3)) was used to calculate Stern–Volmer quenching constants (KSV) and quenching rate constants (Kq) of the interactions between apo-transferrin and copper complexes and to determine the mechanism of fluorescence quenching. Fo/(Fo − F) = 1/fa + 1/(faKsv[Q])(3)
In the equation, Fo and F are the fluorescence intensities of protein in the absence and presence of the quencher in the concentration (Q), respectively; KSV is the Stern–Volmer quenching constant; and fa is the fraction of the fluorophore accessible to the quencher.
Kq, the quenching rate constant of the biomolecules, is expressed as:Kq = Ksv/τo(4) where τo is the fluorescence lifetime of protein without quencher. For apo-transferrin, the τo value is 2.5 ns.
Association constants (Ka) and number of binding sites (n) were determined based on the Equation (5):log {(Fo − F)/F} = logKa + nlog[Q](5) where Fo and F are the fluorescence intensities in the absence and presence of the quencher in the concentration (Q), respectively, Ka is the binding constant, and n is the number of binding sites.
It is known that interactions between proteins and small molecules include hydrogen bonds, van der Waals, and electrostatic forces as well hydrophobic interactions. Based on thermodynamic parameters, we determined the type of interaction of copper complexes with apo-transferrin.
∆G^0 = ∆H^0 − T∆S^0(7) where Ka is the bimolecular binding constant at the corresponding temperature (T); R is the gas constant; and ΔH^0, ΔS^0, and ΔG^0 are enthalpy, entropy, and free energy change, respectively.
High purity apo-transferrin (≥ 98%, Sigma-Aldrich, Steinheim, North Rhine-Westphalia, Germany) was used without prior purification. The stock solutions of the complexes were prepared in demineralized water (1 and 2) or ethanol (3). The apo-Tf was dissolved in PBS (pH 7.40). The molar ratios of the final samples in PBS were (protein):(drug) = 1:0–1:16 in PBS with the protein concentration equal 2 μM. Samples were incubated at 300 and 310 K for 5 min. The apo-Tf concentration was determined using ε (280 nm) = 11.2 mM^−1 × cm^−1.
Emission fluorescence spectra were recorded on Jasco 8200 spectrofluorimeter (Tokyo, Japan) in the range of 300–500 nm using 1.0 cm quartz cells. The λex was set to 280 nm and the excitation and emission slit widths were set to 5 nm. All fluorescence intensities were corrected (according to Equation (8)) for the inner filter and dilution effects and the corrected values were used to determine the quenching mechanism and binding data. […] Therefore, all spectra are shown as different spectra of (apo-Tf-copper complex)−(copper complex). Fcorr = exp(A280 + Aem/2) × Fexp(8)

Data set [5] concerns A549 (human lung carcinoma). Briefly: Cytotoxicity on A549 cells, quantitative suspension test according to EN 14476. In kind it is cell-based. As to conditions: observed 4 days, aqua media. As for the experimental part:
as §1, §2

In another data set the test system is NHDF cells. Briefly: Cytotoxicity on normal human dermal fibroblasts, quantitative suspension test according to EN 14476 (DAPI/propidium iodide). In kind it is cell-based. The note with it: observed 4 days, aqua media. As for the experimental part:
as §1, §2

T1 sequence (P02787 20-698): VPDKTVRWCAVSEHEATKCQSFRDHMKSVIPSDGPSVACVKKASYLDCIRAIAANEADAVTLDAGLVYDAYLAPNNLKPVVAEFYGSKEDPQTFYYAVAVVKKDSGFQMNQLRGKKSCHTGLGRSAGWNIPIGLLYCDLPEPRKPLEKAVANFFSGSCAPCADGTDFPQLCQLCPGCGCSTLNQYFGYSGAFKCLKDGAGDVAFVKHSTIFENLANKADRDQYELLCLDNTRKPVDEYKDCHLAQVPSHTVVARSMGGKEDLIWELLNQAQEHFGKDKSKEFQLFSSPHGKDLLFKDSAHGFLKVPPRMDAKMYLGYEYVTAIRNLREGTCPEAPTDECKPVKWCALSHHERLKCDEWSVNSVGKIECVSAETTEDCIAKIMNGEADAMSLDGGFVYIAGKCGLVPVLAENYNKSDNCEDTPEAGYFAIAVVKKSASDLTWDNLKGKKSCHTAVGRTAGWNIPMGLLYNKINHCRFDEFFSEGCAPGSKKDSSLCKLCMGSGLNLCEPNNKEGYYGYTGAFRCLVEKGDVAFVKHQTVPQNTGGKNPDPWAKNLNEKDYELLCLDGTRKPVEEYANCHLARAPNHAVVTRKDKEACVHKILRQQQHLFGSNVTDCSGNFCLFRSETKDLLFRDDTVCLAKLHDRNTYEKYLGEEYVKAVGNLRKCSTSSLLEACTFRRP

As to `CC#N.Cc1ccc2ccc3ccc(C)nc3c2n1.O=[N+]([O-])[O-].O=[N+]([O-])[O-].[Cu+2]` [Complex 3, [Cu(NO3)2(dmphen)]∙MeCN], the IC50 came out at 1720 ± 250 nM in data set [1], 3450 ± 510 nM in data set [2], 430 ± 60 nM in data set [5] and 1720 ± 250 nM with NHDF cells. Moreover, in data set [3], the “solubility in water S25 °C” value was 2.9 mg mL^−1 and ≈ 2.9 mg mL^−1. The “G^0 (free energy change)” value was -40.01 kJ/mol in data set [4] (300 K) and -41.37 kJ/mol in data set [4] (310 K). Moreover, the “Ksv values” in data set [4] (300 K) amounted to 53700 M⁻¹; in data set [4] (310 K) it was 35100 M⁻¹. The “n (number of binding sites)” value in data set [4] (300 K) is recorded as 1.40 ± 0.076; in data set [4] (310 K), 1.42 ± 0.068. Further, the “Ka (association constant)” value in data set [4] (300K) was 9.26 ± 0.37 ·10^6 [M^−1]; in data set [4] (310K) it was 9.38 ± 0.33 ·10^6 [M^−1]. In addition, the “Ksv (Stern-Volmer quenching constant)” value in data set [4] (300K) was 5.37 ± 0.023 ·10^4 [M^−1]; in data set [4] (310K), 3.51 ± 0.062 ·10^4 [M^−1]. The “Kq (quenching rate constant)” value in data set [4] (310K) is 1.40 ± 0.062 ·10^13 [M^−1s^−1]. In addition, the “H^0 (enthalpy change)” value in data set [4] worked out at 962.34 kJ/mol. Besides, the “S^0 (entropy change)” value in data set [4] was determined as 136.57 J mol^−1 K^−1.

Take `Cc1ccc2ccc3ccc(C)nc3c2n1.F[P-](F)(F)(F)(F)F.O=P12CN3CN(CN(C3)C1)C2.O=[N+]([O-])[O-].[Cu+2]` [Complex 1, [Cu(NO3)(PTA=O)(dmphen)][PF6]]: the IC50 came to 570 ± 80 nM in data set [1], 570 ± 80 nM in data set [2], 290 ± 10 nM in data set [5] and 570 ± 80 nM in the data set with NHDF cells. For the same compound, the “solubility in water S25 °C” value in data set [3] was 3.8 mg mL^−1 and ≈ 3.8 mg mL^−1. The “G^0 (free energy change)” value in data set [4] (300 K) was -34.53 kJ/mol; in data set [4] (310 K), -35.17 kJ/mol. The entries for the “n (number of binding sites)” value in data set [4] (300 K) and in data set [4] (310 K) were 1.26 ± 0.033 and 1.24 ± 0.036, respectively. Also, the “Kq (quenching rate constant)” value in data set [4] (300K) was 1.00 ± 0.011 ·10^13 [M^−1s^−1]; in data set [4] (310K), 1.17 ± 0.029 ·10^13 [M^−1s^−1]. Besides, the “Ka (association constant)” value in data set [4] (300K) is 1.03 ± 0.16 ·10^6 [M^−1]; in data set [4] (310K) it was 0.843 ± 0.17 ·10^6 [M^−1]. Besides, the “Ksv (Stern-Volmer quenching constant)” value is 2.50 ± 0.011 ·10^4 [M^−1] in data set [4] (300K) and 2.92 ± 0.029 ·10^4 [M^−1] in data set [4] (310K). For the same compound, the “H^0 (enthalpy change)” value in data set [4] was -15.33 kJ/mol. The “S^0 (entropy change)” value in data set [4] was 63.99 J mol^−1 K^−1.

`Cc1ccc2ccc3ccc(C)nc3c2n1.Cc1ccc2ccc3ccc(C)nc3c2n1.F[P-](F)(F)(F)(F)F.[Cl-].[Cu+2]` [Complex 2, [Cu(Cl)(dmphen)2][PF6]]: the IC50 in data set [1] came out at 1130 ± 170 nM; in data set [2] it was 570 ± 80 nM; in data set [5] it was 280 ± 40 nM; in the data set with NHDF cells, 230 ± 30 nM. For the same compound, the “solubility in water S25 °C” value in data set [3] was 2.5 mg mL^−1 and ≈ 2.5 mg mL^−1. Moreover, the “G^0 (free energy change)” value is -38.15 kJ/mol in data set [4] (300 K) and -38.45 kJ/mol in data set [4] (310 K). Besides, the “n (number of binding sites)” value in data set [4] (300 K) was determined as 1.35 ± 0.050; in data set [4] (310 K), 1.31 ± 0.066. For the same compound, the “Kq (quenching rate constant)” value in data set [4] (300K) is 1.61 ± 0.050 ·10^13 [M^−1s^−1]; in data set [4] (310K) it was 2.27 ± 0.024 ·10^13 [M^−1s^−1]. For the same compound, the “Ka (association constant)” value was 4.38 ± 0.24 ·10^6 [M^−1] in data set [4] (300K) and 3.04 ± 0.32 ·10^6 [M^−1] in data set [4] (310K). In addition, the “Ksv (Stern-Volmer quenching constant)” value in data set [4] (300K) was 4.03 ± 0.050 ·10^4 [M^−1]; in data set [4] (310K), 5.69 ± 0.024 ·10^4 [M^−1]. For the same compound, the “H^0 (enthalpy change)” value in data set [4] was -28.24 kJ/mol. Moreover, the “S^0 (entropy change)” value in data set [4] is 33.02 J mol^−1 K^−1.

A word on the IC50: it is the concentration needed to halve the response being measured. Low values mean higher potency, high ones lower potency.

The values are drawn from paper PMC7037393, “Synthesis, Structural, and Cytotoxic Properties of New Water-Soluble Copper(II) Complexes Based on 2,9-Dimethyl-1,10-Phenanthroline and Their One Derivative Containing 1,3,5-Triaza-7-Phosphaadamantane-7-Oxide” (Molecules, 2020).
